Target: T1, Heme ligase (Plasmodium falciparum (isolate 3D7), UniProt Q8IL04)
T1 sequence (Q8IL04 whole entry): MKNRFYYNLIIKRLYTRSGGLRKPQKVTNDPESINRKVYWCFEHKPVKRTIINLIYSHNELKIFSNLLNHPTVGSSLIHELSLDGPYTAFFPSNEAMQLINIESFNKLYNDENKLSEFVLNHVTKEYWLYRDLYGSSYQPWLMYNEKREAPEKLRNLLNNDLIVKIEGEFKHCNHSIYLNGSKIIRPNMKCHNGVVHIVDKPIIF
Experiment: ChEBML_1681013
Source text: Binding affinity to Plasmodium falciparum 3D7 HDP assessed as equilibrium dissociation constant by SPR assay

Kd: 2.96 µM
Structure (SMILES): FC(F)(F)c1cccc(N2CCN(C3=Cc4ccccc4CC3)CC2)c1
